Measurements: patent US12435081B2, “Methods of treatment using BCN057 and BCN512” (BCN Biosciences L.L.C., priority 2019, dated 2025)
Blank lines part the entries; values can stand above or below the molecule they belong to.

How the values were obtained:
[1] = test system: pancreatic cancer cell lines; assay: ATP Lite viability assay of pancreatic cancer cell lines; type: cell-based
Description: FIG. 1 depicts the Effects of 5-FU and BCN057 on the viability of pancreatic cancer cell lines. The Effects of 5-FU and BCN057 on the viability of pancreatic cancer cell lines were assessed by ATP Lite assay (Perkin Elmer). 50 uM 5Fu (5Fu, n=5), 50 uM 5Fu and 2, 5, 10, and 20 uM BCN057 (5Fu+BCN057, n=5) or 2, 5, 10.20 uM CN057 (CN057, n=5). Control cells (V, n=5) The Percent Phosphorylation was calculated by dividing the average value for each condition by the average value of the control cells (V) at each time point.
FIGS. 4A and 4B show Compound H, Compound K and the results of a Viability Assay on Pancreatic Cells. […] The numeric data is also included (FIG. 4B). FIG. 5A depicts Compound H and FIG. 5B depicts Compound K.

[2] = Solubility in aqueous formulations; type: physicochemical; conditions: 30 wt % Captisol (SBE-beta-CD) and 100 mM MSA, at up to pH 4.1 or higher
[3] = test system: pancreatic cancer cell lines; assay: Imaging of pancreatic cancer cell lines over time; type: cell-based; conditions: 10 uM, time 0 to 240 minutes
Description: FIG. 3 depicts the Effects of 10 uM BCN057 on the viability of pancreatic cancer cell lines. The images show pancreatic cancer cell lines at time 0 (FIG. 3A), 15 minutes (FIG. 3B), 30 minutes (FIG. 3C), 60 minutes (FIG. 3D), 120 minutes (FIG. 3E) and 240 minutes (FIG. 3F).

[4] = test system: Panc-1 cells; assay: RealTime-Glo Annexin V Apoptosis and Necrosis Assay; type: cell-based
Description: FIGS. 2A and 2B depict the Annexin V Apoptosis and Necrosis Assay in Panc-1 cells. Panc-1 cells were exposed to serial dilutions of 057 in the presence or absence of the RealTime-Glo™ Annexin V Apoptosis and Necrosis Assay Reagent. The plate was incubated at 37° C./5% CO2 and luminescence (Annexin V binding) was measured over a period of 6 hours.

[5] = test system: HEK293 cells having a TCF/LEF luciferase reporter construct; assay: TCF/LEF luciferase reporter assay of canonical WNT activity; type: cell-based; conditions: after 24 hours, compared with vehicle treated cells
Description: These studies and observations are consistent with previous observations, specifically that WNT-catenin signaling promotes the self-renewal and differentiation of LGR5+ epithelial (lung, oral, intestinal) stem cells. Canonical WNT activity was measured in HEK293 cells having a TCF/LEF luciferase reporter construct. Luciferase activity was measured after 24 hours.

[6] = test system: Wnt activity; assay: TOPFLASH assay of exosomes purified from human lung organoid conditioned medium; type: cell-based; conditions: human lung organoids irradiated (4-6 Gy), treated with BCN512, compared to irradiated control
Description: For the role of BCN512 in human pulmonary epithelium derived Wnt release, exosome were purified from organoid conditioned medium. Purified exosomes were tested for Wnt activity by TOPFLASH assay.

[7] = test system: Wnt activity; assay: TOPFLASH assay of exosomes purified from lung organoid conditioned medium; type: cell-based, mice; conditions: irradiated organoids treated with BCN512 compared to irradiated control
Description: If BCN512 and related structures inhibit the activity of SRFPs, BCN512 can allow more free Wnt ligand from epithelial cells. Free Wnt ligands are secreted and transported through exosomes. To determine the role of BCN512 in pulmonary epithelium derived Wnt release, exosomes were purified from organoid conditioned medium. Purified exosomes were tested for Wnt activity by the TOPFLASH assay.
Wnt activity has also been examined in exosomes derived from human lung organoids.

[8] = test system: TGFβ; assay: Histopathology of lung and cardiac muscle sections stained for TGFβ after thoracic radiation; type: in vivo, C57M Male mice
Description: Transforming growth factor β (TGF-β) is a central mediator of fibrogenesis. […] TGFβ is reduced when treated for the first 20 days post radiation with BCN512 at 5 mg/kg. Images D-F are cardiac muscle stains under the identical parameters above from the same animals. […] We expect the same results using non-radiation induced stimuli including LPS and cytotoxic drugs.

[9] = test system: lung fibrosis; assay: Fibrotic lesions in lung sections; type: in vivo; conditions: BCN512 treated (20×512) vs. vehicle (20×V), C57BL mice, day 180, five mice per group
Text: Lesions were defined by local density with five mice per group assessed at day 180. This effect is observed with non-radiation induced stimuli such as LPS and cytotoxic drugs.

- solubility [2]: excellent solubility
SMILES: COc1ccc2cc(-c3nc4ccc(C)cn4c3NCc3ccco3)c(=O)[nH]c2c1 [BCN057, (3-[(Furan-2-ylmethyl)-amino]-2-(7-methoxy-2-oxo-1,2-dihydro-quinolin-3-yl)-6-methyl-imidazo[1,2-a]pyridin-1-ium)]
- antineoplastic activity / proliferation of the tumor cell line [1]: inhibits the proliferation of the tumor cell line
- morphological changes and apoptosis [3]: particularly apparent at 240 minutes
- fluorescence (necrosis) ([4]; over the same 6 hour period): No change
- apoptosis (luminescence, Annexin V binding) ([4]; serial dilutions, measured over 6 hours): increase with increasing concentrations

SMILES: O=[N+]([O-])c1ccc([S@SP3](=O)(=O)N2CCN(c3ccccc3)CC2)cc1 [BCN512, 1-[(4-nitrobenezene)sulfonyl]-4-phenyl piperazine]
- luciferase activity [5]: significantly increased
- exosomal Wnt activity [6]: several folds high
- exosomal Wnt activity [7]: several folds higher
- TGFβ staining in lung sections ([8]; 14Gy thoracic radiation, 5 mg/kg for the first 20 days post radiation, assessed on day 90): reduced
- TGFβ staining with non-radiation induced stimuli ([8]; non-radiation induced stimuli including LPS and cytotoxic drugs): same results
- TGFβ staining in cardiac muscle ([8]; same animals and parameters: 14Gy thoracic radiation, 5 mg/kg for first 20 days, day 90): significant reduction
- lung fibrosis (number of fibrotic lesions in lung sections) [9]: significant reduction
